In patent US9649373B2, “Neoseptins: small molecule adjuvants” (THE SCRIPPS RESEARCH INSTITUTE, priority 2013, dated 2017):
Values belong to the molecule of their own block, whether it stands above or below them.

How the values were obtained:
[1] = target: T1, TLR4 (Mus musculus, UniProt Q9JHF9+Q9QUK6); experiment: Mouse peritoneal macrophage agonist assay (TNF-α ELISA); format: cell-based; parameters: used to inject mice intraperitoneally; endogenous in cells; host or cells: mouse peritoneal exudate cells (thioglycolate-elicited peritoneal macrophages); conditions: for TLR4 agonist efficacy: relative to neoseptin-1 or LPS; for EC50: read-out: EC50 of dose-response curves, TLR4 agonist activity
T1 sequence (Q9QUK6 26-835): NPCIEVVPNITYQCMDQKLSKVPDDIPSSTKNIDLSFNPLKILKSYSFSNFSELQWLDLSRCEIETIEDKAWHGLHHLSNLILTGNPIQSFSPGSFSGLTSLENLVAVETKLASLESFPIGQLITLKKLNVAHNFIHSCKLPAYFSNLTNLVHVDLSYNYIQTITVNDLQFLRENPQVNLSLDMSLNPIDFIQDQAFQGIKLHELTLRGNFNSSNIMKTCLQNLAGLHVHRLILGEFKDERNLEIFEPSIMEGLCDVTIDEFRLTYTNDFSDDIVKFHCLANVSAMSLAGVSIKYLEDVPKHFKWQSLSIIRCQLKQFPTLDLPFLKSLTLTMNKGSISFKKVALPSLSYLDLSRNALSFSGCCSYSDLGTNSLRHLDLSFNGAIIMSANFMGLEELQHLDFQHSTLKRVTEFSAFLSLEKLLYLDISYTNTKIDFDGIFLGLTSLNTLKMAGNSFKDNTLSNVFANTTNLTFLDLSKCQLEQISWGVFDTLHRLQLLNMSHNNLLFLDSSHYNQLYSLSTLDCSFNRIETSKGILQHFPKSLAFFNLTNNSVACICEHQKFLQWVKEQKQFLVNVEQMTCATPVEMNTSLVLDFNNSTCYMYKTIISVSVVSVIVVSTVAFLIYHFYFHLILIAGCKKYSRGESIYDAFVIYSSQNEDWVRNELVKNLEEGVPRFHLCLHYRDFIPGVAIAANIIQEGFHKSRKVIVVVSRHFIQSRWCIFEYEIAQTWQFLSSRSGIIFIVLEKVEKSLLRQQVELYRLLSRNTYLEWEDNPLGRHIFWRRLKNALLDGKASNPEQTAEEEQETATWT
T1 sequence (Q9JHF9 19-160): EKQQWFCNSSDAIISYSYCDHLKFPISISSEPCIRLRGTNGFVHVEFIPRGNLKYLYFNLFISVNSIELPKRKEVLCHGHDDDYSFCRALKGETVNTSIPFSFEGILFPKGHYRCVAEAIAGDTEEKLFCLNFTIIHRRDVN
Experimental: Mouse Peritoneal Macrophage Agonist Assay
Three to four days prior to PEC isolation, 3 mL syringes filled with Brewer's thioglycolate medium are used to inject mice intraperitoneally with 1.5-2 mL through a 25-gauge needle.
Immediately prior to isolation, mice are anaesthetized under isofluorane vapour (2-5% v/v, 2% O2).
5 mL syringes filled with sterile PBS are used to recover PECs by lavage through an 18-gauge needle. Once obtained, exudate is added to 5 mL of PEC recovery solution in a 15 mL conical tube, and stored on ice.
Tubes containing exudate are centrifuged for 3 minutes at 1200 rpm in a tabletop centrifuge, and supernatant is replaced with 1-4 mL of PEC medium. Pelleted cells are resuspended by pipeting, and a 10 μL aliquot is taken for cell enumeration.
The concentration of each cell sample is adjusted to 1×10^6 cells/mL using PEC medium, and 100 μL of each sample (1×10^5 cells) is added to a tissue culture-treated 96 well flat-bottomed plate, leaving two columns (11 & 12) unoccupied per plate. Plates are incubated at 37° C./5% CO2 in a humidified incubator for at least 1 hour to permit cells to adhere to the plate, during which time 125-03 solutions are prepared.
Following preincubation of PECs in the 96-well plate, non-adherent PECs are discarded along with residual medium, and 50 μM of compounds to be assayed are added to the cells. Plates are incubated for a further 4 hours.
Conditioned supernatant is collected into another 96 well plate and retained for TNF ELISA Assay. The cells are replaced with 100 μL/well of a 1:4 MTT solution:PEC medium solution (MTT 1 mg/mL final concentration). PEC plates are incubated at 37° C./5% CO2 overnight (about 18 hours). Supernatants are removed and 100 μL DMSO is added to each well. The plate is shaken for 10 minutes and read at 570 nm. This value is used to measure the cytotoxicity of the compounds.
Coat ELISA plate with 100 μL/well of capture antibody in Coating Buffer. Seal the plate and incubate overnight (about 18 hours) at 4° C.
Aspirate wells and wash 4× with 300 μL/well Wash Buffer. Blot plate on absorbent paper to remove residual buffer.
Dilute 1 part 5× concentrated Assay Diluent with 4 parts DI water. Block wells with 200 μL/well of 1× Assay Diluent. Incubate at room temperature for 1 hour or 4° C. overnight (about 18 hours).
Aspirate and wash at twice with Wash Buffer.
Using 1× Assay Diluent to perform 2-fold serial dilutions of the top standards to make the standard curve for a total of 8 points: 1000, 500, 250, 125, 62.5, 31.25, 15.625, 0 pg/ml. Add 100 μL/well of top standard concentration to the appropriate wells. Add 65 μL/well assay diluent plus 35 μL samples to the wells. Seal the plate and incubate at room temperature for 2 hours [or overnight (about 18 hours) at 4° C.]
Aspirate/wash 4 times with wash buffer.
Add 100 μL/well of detection antibody diluted in 1× Assay diluent. Seal the plate and incubate at room temperature for 1 hour.
Aspirate/wash. Repeat for a total of 4 washes.
Add 100 μL/well of Avidin-HRP diluted in 1× Assay diluent. Seal the plate and incubate at room temperature for 30 minutes.
Aspirate and wash. Repeat for a total of 5 washes.
Add 100 μL/well of Substrate Solution to each well. Incubate plate at room temperature for 2-3 minutes.
Add 50 μL/well of Stop Solution, and read plate at 450 nm.

[2] = target: T1, TLR4; experiment: TNF-α production in macrophages from mice with disabling germline mutations or knockouts of TLRs and downstream signaling proteins; format: cell-based; parameters: normalized TNF-α production in macrophages from mice; endogenous in cells; host or cells: macrophages from wild-type and mutant/knockout mice; conditions: for Genes on which induced TNF-α production depends / mechanism of signaling: mutant or knockout mouse macrophages, 5 ng/ml LPS or 50 mM neoseptin-3 (FIG. 1)
Experimental: FIG. 1 in two parts as FIG. 1A and FIG. 1B are bar graphs that illustrate an assay of normalized TNF-α production in macrophages from mice containing disabling germline mutations or knockouts of genes encoding TLRs and downstream signaling proteins using 5 ng/ml of LPS or […] neoseptin-3.
(§1) See, (a) mutagenetix.utsouthwestern.edu.; (b) Arnold et al., (2012) ENU-induced phenovariance in mice: Inferences from 587 mutations. BMC Res. Notes. 5, 577-0500-5-577.

[3] = target: T2, MD-2 (UniProt Q9JHF9); experiment: Isothermal titration calorimetry binding to MD-2
T2 sequence (Q9JHF9 1-160): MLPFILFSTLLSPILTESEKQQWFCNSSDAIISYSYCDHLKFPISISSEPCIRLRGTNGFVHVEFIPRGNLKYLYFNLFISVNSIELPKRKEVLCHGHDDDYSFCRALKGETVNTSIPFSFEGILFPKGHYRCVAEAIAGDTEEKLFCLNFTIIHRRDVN

[4] = system: type I interferon response; experiment: Type I interferon response, release of INF-β / INF-α (FIG. 2); format: cell-based
[5] = system: C57BL/6J mice; experiment: In vivo adjuvant effect, intramuscular co-injection with ovalbumin, serum OVA-specific IgG ELISA; parameters: species or system mouse
Experimental: FIG. 3, in two panels as FIG. 3A and FIG. 3B, are graphs that illustrate ELIZA results for the adjuvant effect of neoseptin-3. In FIG. 3A, adjuvants were mixed with ovalbumin (OVA, 100 μg) and injected intramuscularly into C57BL/6J mice at the indicated doses. Two immunizations were administered with a booster given at 7 days. In FIG. 3B, LPS (0.2 mg/kg), neoseptin-3 (250 mg/kg) or monophosphoryl lipid A from Salmonella minnesota R595 (MPLA) (0.2 mg/kg) were mixed with ovalbumin (OVA, 0, 1, 10, and 100 μg) Serum levels of OVA-specific IgG were measured (ELISA) on indicated days post-immunization.
FIG. 9 is a graph similar to FIG. 3 showing anti-olvalbumin titers at 14 days post immunization using adjuvants with ovalbumin (OVA, 100 μg) and injected intramuscularly into C57BL/6J mice. The adjuvants used were neoseptin-3, LPS, MPLA, and alum in the amounts shown.
It is remarkable that such a small molecule can display such exquisite structural selectivity for activating the immune response and to do so in a way that is so mechanistically specific and well-defined. {See, (a) Vogel Clin. Infect. Dis. 30 (Suppl 3):S266-S270 (2000); (b) Guy, Nat. Rev. Microbiol. 5:505-517 (2007); (c) Johnson, Curr. Top. Med. Chem. 8:64-79 (2008); and (d) Persing et al., Trends Microbiol. 10:S32-S37 (2002) and the citations therein for the procedures utilized.] […]

[6] = Overt toxicity on in vivo administration as adjuvant; conditions: at the maximum doses capable of administration
Source text: Thus, a contemplated Compound of Formula I acts as an agonist at the TLR4 receptor in that it binds to the TLR4 receptor of a cell and triggers a response by that cell, thereby mimicking the action of LPS, without the toxic result from using LPS as an adjuvant.
It is remarkable that such a small molecule can display such exquisite structural selectivity for activating the immune response and to do so in a way that is so mechanistically specific and well-defined. {See, (a) Vogel Clin. Infect. Dis. 30 (Suppl 3):S266-S270 (2000); (b) Guy, Nat. Rev. Microbiol. 5:505-517 (2007); (c) Johnson, Curr. Top. Med. Chem. 8:64-79 (2008); and (d) Persing et al., Trends Microbiol. 10:S32-S37 (2002) and the citations therein for the procedures utilized.]

[7] = system: NF-κB, P38 MAPK, JNK, and Erk signaling pathways; experiment: Activation of signaling pathways; format: cell-based
Source text: as §1

Structure (SMILES): N[C@@H](Cc1ccccc1)C(=O)Nc1ccc(C(=O)N[C@@H](CCc2ccccc2)C(=O)O)cc1CCc1ccc(O)cc1 [MM-1-88]
- TLR4 agonist efficacy [1]: significant enhancement in TLR4 agonist efficacy

- Genes on which induced TNF-α production depends / mechanism of signaling [2]: established to be TLR4
Structure (SMILES): N[C@@H](Cc1ccccc1)C(=O)Nc1ccc(C(=O)N[C@@H](CCc2ccccc2)C(=O)O)cc1OCCc1ccc(O)cc1 [neoseptin-1]

- Affinity for MD-2 relative to MPLA ([3]; ITC direct binding): slightly better than that of MPLA itself
- Kd ([3]; ITC, 20 μM neoseptin-3 with 350 μM MD-2): 11.7 µM
- CD14 dependence of induced TNF-α production ([2]; unlike LPS): independent of CD14
- EC50 [1]: 15 to 25 µM
- TLR4 agonist efficacy [1]: nearly matching the efficacy of LPS
- Effect of antagonist eritoran on TLR4 agonist activity ([1]; with eritoran): blocked by the antagonist eritoran
Structure (SMILES): CC(C)(C)OC(=O)[C@H](CCc1ccccc1)NC(=O)c1ccc(N)c(CCc2ccc(O)cc2)c1 [neoseptin-3]
- Release of INF-β (type I interferon response) compared with LPS [4]: much more effectively stimulates a type I interferon response resulting in the release of INF-β
- In vivo adjuvant immune response compared with LPS ([5]; co-injected with ovalbumin, intramuscular (FIG. 3)): more sustained immune response of equal or greater efficacy than LPS
- In vivo adjuvant immune response compared with alum ([5]; ovalbumin 100 μg i.m., 14 days post immunization (FIG. 9)): much more robust immune response in vivo than does alum
- Overt toxicity [6]: does not display the overt toxicity
- Activation of signaling pathways [7]: activate the NF-κB, P38 MAPK, JNK, and Erk signaling pathways
- Genes on which induced TNF-α production depends / mechanism of signaling [2]: dependent on TLR4, MD-2, MyD88, Trif, TRAM, MAL, IRAK4, and IKBKG

- EC50 [1]: 15 to 25 µM
- TLR4 agonist efficacy [1]: nearly matching the efficacy of LPS
Structure (SMILES): CC(C)(C)OC(=O)[C@H](CCc1ccccc1)NC(=O)c1ccc(N)c(OCCc2ccc(O)cc2)c1 [neoseptin-4]
